Experimental data from patent US5328909A, “Cyclopropenone derivatives” (Mitsubishi Kasei Corporation, priority 1991, dated 1994).
Counter-ions that a name gives are not always drawn.

Target: T1, m-calpain (Rattus norvegicus, UniProt Q07009)
T1 construct: m-calpain was purified from rat brain; from tissue; host or cells: rat brain
T1 sequence (Q07009 20-700 limits assumed): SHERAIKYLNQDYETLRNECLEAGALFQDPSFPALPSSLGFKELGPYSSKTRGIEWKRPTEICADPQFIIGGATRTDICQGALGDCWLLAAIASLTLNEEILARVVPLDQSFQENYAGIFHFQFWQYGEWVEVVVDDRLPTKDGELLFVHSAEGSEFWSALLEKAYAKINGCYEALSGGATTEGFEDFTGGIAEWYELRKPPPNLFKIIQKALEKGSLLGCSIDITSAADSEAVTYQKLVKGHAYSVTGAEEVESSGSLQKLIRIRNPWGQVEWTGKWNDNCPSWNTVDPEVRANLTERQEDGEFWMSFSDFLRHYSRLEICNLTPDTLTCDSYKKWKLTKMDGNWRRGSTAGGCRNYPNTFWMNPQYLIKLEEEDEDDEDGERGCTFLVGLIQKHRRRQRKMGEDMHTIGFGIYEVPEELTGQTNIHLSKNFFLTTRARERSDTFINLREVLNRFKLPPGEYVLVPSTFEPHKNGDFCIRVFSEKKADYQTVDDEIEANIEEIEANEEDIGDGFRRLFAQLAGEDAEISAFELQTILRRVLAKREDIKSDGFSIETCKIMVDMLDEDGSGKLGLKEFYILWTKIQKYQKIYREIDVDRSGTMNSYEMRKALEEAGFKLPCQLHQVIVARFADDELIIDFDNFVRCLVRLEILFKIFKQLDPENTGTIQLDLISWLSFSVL
T1 sequence (Q64537 1-270 partner): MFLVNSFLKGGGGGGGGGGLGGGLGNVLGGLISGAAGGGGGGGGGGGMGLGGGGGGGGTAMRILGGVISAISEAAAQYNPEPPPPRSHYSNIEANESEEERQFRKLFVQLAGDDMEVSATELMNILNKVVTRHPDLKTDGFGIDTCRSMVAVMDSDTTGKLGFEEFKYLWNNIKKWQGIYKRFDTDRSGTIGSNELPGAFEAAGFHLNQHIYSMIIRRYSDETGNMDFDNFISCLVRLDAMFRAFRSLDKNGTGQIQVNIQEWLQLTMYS
Assay: Thiol protease inhibitory activity against m-calpain purified from rat brain
Type: biochemical
Settings: Table 4; rat brain enzyme; read-out: Inhibitory activity against m-calpain IC50
Protocol: Inhibitory activity against papain (P-3125, Sigma) and cathepsin B (C-6286, Sigma) was assayed according to the method described in a literature [Biochemical Journal, 201, 189 (1982)]. Capthesin L was purified from rat kidney according to the method in a literature [Journal of Biochemistry, 100, 35 (1986)], and the inhibitory activity against it was assayed in the same manner as described in the above literature for cathepsin B. Further, m-calpain was purified from rat brain according to a known method [Journal of Biological Chemistry, 254, p.3210 (1984)] and the inhibitory activity against it was assayed by a method described in a literature [Journal of Biological Chemistry, 259, 12489 (1984)]. The results are showing in Tables 3 and 4. It is evident from Tables 3 and 4 that the compounds in the present invention have a potent inhibitory activity against thiol proteases such as papain, cathepsin B, cathepsin L, m-calpain or the like.

IC50 [nM]	Compound
1600	CC(C)C[C@H](NC(=O)c1c(F)cccc1F)C(=O)N[C@@H](C(C)C)[C@@H](O)c1c(-c2ccccc2)c1=O [59 (No. 175), 2-[(1S, 2S)-2-{(S)-2-(2,6-difluorobenzoylamino)-4-methylvalerylamino}-1-hydroxy-3-methylbutyl]-3-phenylcyclopropenone]
1100	CC(C)C[C@H](NC(=O)c1ccccc1Cl)C(=O)N[C@@H](C(C)C)[C@@H](O)c1c(-c2ccccc2)c1=O [60 (No. 178), 2-[(1S, 2S)-2-{(S)-2-(2-chlorobenzoylamino)-4-methylvalerylamino}-hydroxy-3-methylbutyl]-3-phenylcyclopropenone]
1400	CC(C)C[C@H](NC(=O)c1ccc(Cl)cc1)C(=O)N[C@@H](C(C)C)[C@@H](O)c1c(-c2ccccc2)c1=O [62 (No. 180), 2-[(1S, 2S)-2-{(S)-2-(4-chlorobenzoylamino)-4-methylvalerylamino}-1-hydroxy-3-methylbutyl]-3-phenylcyclopropenone]
1600	Cc1ccccc1C(=O)N[C@@H](CC(C)C)C(=O)N[C@@H](C(C)C)[C@@H](O)c1c(-c2ccccc2)c1=O [63 (No. 184), 2-[(1S, 2S)-1-hydroxy-3-methyl-2-{(S)-4-methyl-2-(2-toluoylamino)valerylamino}butyl]-3-phenylcyclopropenone]
1800	COC(=O)c1ccc(C(=O)N[C@@H](CC(C)C)C(=O)N[C@@H](C(C)C)[C@@H](O)c2c(-c3ccccc3)c2=O)cc1 [65 (No. 191), 2-[(1S, 2S)-1-hydroxy-2-{(S)-2-(4-methoxycarbonylbenzoylamino)-4-methylvalerylamino}-3-methylbutyl]-3-phenylcyclopropenone]
880	CC(C)C[C@H](NC(=O)c1ccco1)C(=O)N[C@@H](C(C)C)[C@@H](O)c1c(-c2ccccc2)c1=O [67 (No. 197), 2-[(1S, 2S)-2-{(S)-2-(2-furoylamino)-4-methylvalerylamino}-1-hydroxy-3-methylbutyl]-3-phenylcyclopropenone]
3100	CC(C)C[C@H](NC(=O)c1cccs1)C(=O)N[C@@H](C(C)C)[C@@H](O)c1c(-c2ccccc2)c1=O [68 (No. 200), 2-[(1S, 2S)-1-hydroxy-3-methyl-2-{(S)-4-methyl-2-(2-thenoylamino)valerylamino}butyl]-3-phenylcyclopropenone]
3000	Cc1cc(C(=O)N[C@@H](CC(C)C)C(=O)N[C@@H](C(C)C)[C@@H](O)c2c(-c3ccccc3)c2=O)n(C)n1 [69 (No. 203), 2-[(1S, 2S)-2-{(S)-2-(1,3-dimethyl-5-pyrazolylcarbonylamino)-4-methylvalerylamino}-1-hydroxy-3-methylbutyl]-3-phenylcyclopropenone]
1300	CC(C)C[C@H](NC(=O)c1cccnc1)C(=O)N[C@@H](C(C)C)[C@@H](O)c1c(-c2ccccc2)c1=O [71 (No. 209), 2-[(1S, 2S)-1-hydroxy-3-methyl-2-((S)-4-methyl-2-nicotinoylaminovalerylamino)butyl]-3-phenylcyclopropenone]
400	CC(C)C[C@H](NC(=O)c1ccncc1)C(=O)N[C@@H](C(C)C)[C@@H](O)c1c(-c2ccccc2)c1=O [72 (No. 213), 2-[(1S, 2S)-1-hydroxy-2-((S)-2-isonicotinoylamino-4-methylvalerylamino)-3-methylbutyl]-3-phenylcyclopropenone]
1400	CC(C)C[C@H](NC(=O)c1ccnc(Cl)c1)C(=O)N[C@@H](C(C)C)[C@@H](O)c1c(-c2ccccc2)c1=O [73 (No. 216), 2-[(1s, 2S)-2-{(S)-2-(2-chloroisonicotinoylamino)-4-methylvalerylamino}-1-hydroxy-3-methylbutyl]-3-phenylcyclopropenone]
800	CC(C)C[C@H](NC(=O)c1ccc2ccccc2n1)C(=O)N[C@@H](C(C)C)[C@@H](O)c1c(-c2ccccc2)c1=O [74 (No. 219), 2-[(1S, 2S)-1-hydroxy-3-methyl-2-{(S)-4-methyl-2-(2-quinolylcarbonylamino)valerylamino}butyl-3-phenylcyclopropenone hydrochloride]
3300	CC(C)C[C@H](NC(=O)NCc1ccccc1)C(=O)N[C@@H](C(C)C)[C@@H](O)c1c(-c2ccccc2)c1=O [75 (No. 225), 2-[(1S, 2S)-2-{(S)-2-(3-benzylureido)-4-methylvalerylamino}-1-hydroxy-3-methylbutyl]-3-phenylcyclopropenone]
4600	CC(C)C[C@H](NC(=O)Nc1ccccc1)C(=O)N[C@@H](C(C)C)[C@@H](O)c1c(-c2ccccc2)c1=O [76 (No. 227)]
950	CCCS(=O)(=O)N[C@@H](CC(C)C)C(=O)N[C@@H](C(C)C)[C@@H](O)c1c(-c2ccccc2)c1=O [77 (No. 232), 2-[(1S, 2S)-1-hydroxy-3-methyl-2-((S)-4-methyl-2-propylsulfonylaminovalerylamino)butyl]-3-phenylcyclopropenone]
440	CC(C)C[C@H](NS(=O)(=O)Cc1ccccc1)C(=O)N[C@@H](C(C)C)[C@@H](O)c1c(-c2ccccc2)c1=O [78 (No. 237), 2-[(1S, 2S)-2-((S)-2-benzylsulfonylamino-4-methylvalerylamino)-1-hydroxy-3-methylbutyl]-3-phenylcyclopropenone]
1800	CC(C)C[C@H](NS(=O)(=O)Cc1ccccc1)C(=O)N[C@@H](C(C)C)[C@H](O)c1c(-c2ccccc2)c1=O [79 (No. 237), 2-[(1R, 2S)-2-((S)-2-benzylsulfonylamino-4-methylvalerylamino)-1-hydroxy-3-methylbutyl]-3-phenylcyclopropenone]
350	CC(C)C[C@H](NS(=O)(=O)c1ccccc1)C(=O)N[C@@H](C(C)C)[C@@H](O)c1c(-c2ccccc2)c1=O [80 (No. 239), 2-[(1S, 2S)-1-hydroxy-3-methyl-2-((S)-4-methyl-2-phenylsulfonylaminovalerylamino)butyl]-3-phenylcyclopropenone]
4300	CC(C)C[C@H](NS(=O)(=O)c1ccccc1)C(=O)N[C@@H](C(C)C)[C@H](O)c1c(-c2ccccc2)c1=O [81 (No. 239), 2-[(1R, 2S)-1-hydroxy-3-methyl-2-((S)-4-methyl-2-phenylsulfonylaminovalerylamino)butyl]-3-phenylcyclopropenone]
3000	CC(C)C[C@H](NS(=O)(=O)c1ccc(F)cc1)C(=O)N[C@@H](C(C)C)[C@@H](O)c1c(-c2ccccc2)c1=O [83 (No. 245), 2-[(1S, 2S)-2-{(S)-2-(4-fluorophenylsulfonylamino)-4-methylvalerylamino}-1-hydroxy-3-methylbutyl]-3-phenylcyclopropenone]
850	CC(C)C[C@H](NS(=O)(=O)c1ccccc1Cl)C(=O)N[C@@H](C(C)C)[C@@H](O)c1c(-c2ccccc2)c1=O [84 (No. 246), 2-[(1S, 2S)-2-{(S)-2-(2-chlorophenylsulfonylamino)-4-methylvalerylamino}-1-hydroxy-3-methylbutyl]-3-phenylcyclopropenone]
840	CC(C)C[C@H](NS(=O)(=O)c1ccc(Cl)cc1)C(=O)N[C@@H](C(C)C)[C@@H](O)c1c(-c2ccccc2)c1=O [85 (No. 248), 2-[(1S, 2S)-2-{(S)-2-(4-chlorophenylsulfonylamino)-4-methylvalerylamino}-1hydroxy-3-methylbutyl]-3-phenylcyclopropenone]
750	Cc1ccc(S(=O)(=O)N[C@@H](CC(C)C)C(=O)N[C@@H](C(C)C)[C@@H](O)c2c(-c3ccccc3)c2=O)cc1 [86 (No. 251), 2-[(1S, 2S)-1-hydroxy-3-methyl-2-{(S)-4-methyl-2-(4-trisulfonylamino)valerylamino}butyl]-3-phenylcyclopropenone]
1000	COc1ccc(S(=O)(=O)N[C@@H](CC(C)C)C(=O)N[C@@H](C(C)C)[C@@H](O)c2c(-c3ccccc3)c2=O)cc1 [87 (No. 257), 2-[(1S, 2S)-1-hydroxy-2-{(S)-2-(4-methoxyphenylsulfonylamino)-4-methylvalerylamino}-3-methylbutyl]-3-phenylcyclopropenone]
